Measurements from patent publication US5939578A, “Vasomolol: an ultra short-acting and vasodilatory vanilloid type β - adrenoceptor antagonist” (Lin; Tong-Ho, priority 1996, dated 1999).

What was measured:
[1] = system: right atria and left atrial strips; experiment: Intrinsic sympathomimetic activity in isolated right atria and left atrial strips; set-up: species or system reserpinized guinea-pigs; conditions: for intrinsic sympathomimetic activity: effect on heart rate and contractility: cumulative concentrations, in words
Description: Animals were pretreated with reserpine (10 mg/kg, i.p.) 24 hr prior to the experiment described in Naunyn-Schmiedeberg's Arch. […] All preparations including isolated right atria and left atria strips were studied.
All measurements are expressed as mean percentages of the control frequency or force in the same preparation.

[2] = target: T1, β1-adrenoceptor (left atrium) (Cavia porcellus, UniProt H0W3H1); experiment: β-adrenoceptor antagonism in isolated electrically driven left atria (isoproterenol inotropic response); set-up: species or system guinea-pig
T1 construct: Spontaneously-beating right atria were removed from the hearts and mounted in a 10 ml organ bath; from tissue; host or cells: isolated guinea-pig (Hartley) right and left atria
T1 sequence (H0W3H1 1-470): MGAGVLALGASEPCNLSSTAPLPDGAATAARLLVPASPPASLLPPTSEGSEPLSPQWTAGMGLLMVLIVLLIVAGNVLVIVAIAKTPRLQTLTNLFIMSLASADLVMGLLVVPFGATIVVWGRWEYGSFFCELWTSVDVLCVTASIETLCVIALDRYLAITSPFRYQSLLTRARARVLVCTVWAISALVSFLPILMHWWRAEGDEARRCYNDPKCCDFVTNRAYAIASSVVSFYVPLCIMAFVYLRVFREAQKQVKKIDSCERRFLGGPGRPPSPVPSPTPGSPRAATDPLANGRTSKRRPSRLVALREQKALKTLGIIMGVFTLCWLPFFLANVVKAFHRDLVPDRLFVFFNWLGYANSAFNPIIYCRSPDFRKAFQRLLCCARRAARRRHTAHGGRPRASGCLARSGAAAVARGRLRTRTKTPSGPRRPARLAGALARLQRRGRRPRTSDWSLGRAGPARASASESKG
Description: In the isolated left atria, quiescent left atria were dissected free of connective tissue and mounted in organ chambers under a resting tension of 0.5 g. […] Cumulative concentration-response curves to the positive inotropic effects of (-) isoproterenol were obtained in the absence and presence of various concentrations of a test compound. An incubation time of 30 min was allowed for the test compound. Data were calculated as a percentage of the increase in force induced by (-) isoproterenol.
(§1) The pA2 values and slope values were calculated from individual Schild plots by regression analysis. The β1 /β2 -selectivity ratio was obtained from the antilogarithm of the difference between the mean pA2 values obtained from right atrium and trachea.
(§2) Mean cumulative concentration-response curves are shown for the positive chronotropic responses to (-) isoproterenol in spontaneously-beating guinea-pig right atria, positive inotropic responses to (-) isoproterenol in electrically driven guinea-pig left atria, and relaxant effects to (-) isoproterenol in guinea-pig spontaneous tone tracheal strips in the absence (.smallcircle.) or presence of 0.01 (.circle-solid.), 0.1, 1 (.tangle-soliddn.) or 10 (.diamond.) μM of vasomolol.

[3] = Blood pressure and heart rate responses to intravenous injection in anesthetized rats; type: in vivo, pentobarbital-anesthetized normotensive Wistar rats
Description: Measurement of blood pressure and heart rate
The method reported in Gen.
vasomolol (0.5, 1.0, 3.0 mg/kg)

[4] = target: T2, β2-adrenoceptor (trachea) (Cavia porcellus, UniProt Q8K4Z4); experiment: β-adrenoceptor antagonism in isolated tracheal strips (isoproterenol-induced relaxation); set-up: species or system guinea-pig
T2 construct: Guinea-pig trachea were cleaned of extraneous connective tissue and cut into spiral strips; from tissue; host or cells: isolated guinea-pig tracheal spiral strips
T2 sequence (Q8K4Z4 whole entry): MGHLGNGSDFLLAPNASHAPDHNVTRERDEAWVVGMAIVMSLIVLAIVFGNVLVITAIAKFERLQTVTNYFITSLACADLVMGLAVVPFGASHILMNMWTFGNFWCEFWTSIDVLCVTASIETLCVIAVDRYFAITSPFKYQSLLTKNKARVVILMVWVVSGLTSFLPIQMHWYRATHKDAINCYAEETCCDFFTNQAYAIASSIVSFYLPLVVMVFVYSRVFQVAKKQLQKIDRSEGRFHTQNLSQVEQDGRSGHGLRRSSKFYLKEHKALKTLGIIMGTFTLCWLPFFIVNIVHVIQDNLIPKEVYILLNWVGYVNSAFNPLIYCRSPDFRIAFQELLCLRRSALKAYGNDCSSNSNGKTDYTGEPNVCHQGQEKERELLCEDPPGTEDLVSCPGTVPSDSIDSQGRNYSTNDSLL
Description: Guinea-pig trachea were cleaned of extraneous connective tissue and cut into spiral strips as described in Gen. […] This spiral strip was cut into two equal segments and both were suspended in organ baths filled with 20 ml of Kreb's solution. […] An initial basal tension of 2 g was applied to each tracheal strip and the tissue was allowed to gain tone spontaneously until a steady level was reached (60 min).
as §1, §2

[5] = system: phenylephrine-induced pressor response; experiment: Inhibition of phenylephrine-induced pressor response during intravenous infusion; type: in vivo, reserpinized rats; conditions: infusion 300 μg/kg/min; phenylephrine 10 μg/kg i.v.; data not shown
Description: The method reported in Gen. Pharmacol. 24, 1425, 1993 (by inventor group),
phenylephrine (10 μg/klg, i.v.)

[6] = 0.5 mg/kg i.v., mean ± SEM (n = 8)
[7] = 1.0 mg/kg i.v., mean ± SEM (n = 8)
[8] = 3.0 mg/kg i.v., mean ± SEM (n = 8)

CCOC(=O)c1ccc(OCC(O)CNC(C)(C)C)c(OC)c1 (centres unmarked) [Vasomolol]
intrinsic sympathomimetic activity: effect on heart rate and contractility [1]: did not induce an increase in the heart rate or contractility | intrinsic sympathomimetic activity: effect on heart rate and contractility ([1]; listed as vasomolol): Lack of intrinsic sympathomimetic activity | concentration causing negative inotropic and chronotropic effects ([1]; right atria rate and left atria tension): ≥ 10^-5 M | antagonism of isoproterenol-induced positive inotropic responses ([2]; electrically driven left atrial strips): produced dose-dependent rightward shifts of the cumulative concentration-response curves to isoproterenol | relative β-adrenoceptor blocking potency ([2]; guinea-pig atria, in words): more potent than atenolol, slightly more potent than metoprolol, and was less potent than propranolol | pA2 value, β1, left atrium ([2]; mean ± SEM, six to eight experiments, 30 min): 7.44 ± 0.03 | Schild slope, left atrium ([2]; regression of Schild plot): 0.89 ± 0.02 | BP change [3, 6]: -4.5 ± 1.4 mm Hg | HR change [3, 6]: -20.0 ± 2.3 bpm | bradycardia duration [3, 6]: 3.5 ± 0.7 min | BP change [3, 7]: -6.5 ± 1.9 mm Hg | HR change [3, 7]: -34.5 ± 2.8 bpm | bradycardia duration [3, 7]: 7.2 ± 0.8 min | BP change [3, 8]: -10.8 ± 1.2 mm Hg | HR change [3, 8]: -50.0 ± 3.4 bpm | bradycardia duration [3, 8]: 8.0 ± 1.2 min | bradycardia duration ([3]; i.v. injection): less than 10 min | blood pressure and heart rate effect ([3]; i.v. injection 0.5, 1.0, 3.0 mg/kg, in words): produced a hypotensive action and a decrease in heart rate | relative β2-adrenoceptor blocking potency ([4]; in words): less potent than propranolol | pA2 value, β2, trachea ([4]; mean ± SEM, six to eight experiments, 60 min): 5.81 ± 0.11 | antagonism of (-) isoproterenol-induced relaxation ([4]; printed 5×10^8 -10^6 M, tracheal strips): competitively antagonized | Schild slope, trachea ([4]; regression of Schild plot): 0.81 ± 0.06 | inhibition of phenylephrine-induced pressor response [5]: could not significantly inhibit
